Measurements: US11370762B2, “Vinylarene derivative and application” (SHENYANG RESEARCH INSTITUTE OF CHEMICAL INDUSTRY CO., LTD., priority 2017, dated 2022)
Like-named read-outs stand apart in the source and are kept apart here.

Experiments:
[1] = target: T1, IDO1 enzyme in Hela cells (Homo sapiens, UniProt P14902); experiment: Inhibition of IDO1 enzyme in IFN-γ stimulated Hela cells (kynurenine read at 480 nm); assay type: cell-based; settings: for inhibition at 0.1 µM: read-out: Inhibition rate (%) 100 nmol; for inhibition at 10 µM: read-out: Inhibition rate (%) 10 μmol; for activity compared with positive control drugs INCB024360 and IN-4 / IC50: Hela cells; for activity compared with positive control drugs INCB024360 and IN-4: IC50 comparison; for IC50: read-out: Inhibition rate IC50 (nmol/L) on IDO1 enzyme activity in Hela cells
T1 construct: endogenous in cells; host or cells: HeLa cells stimulated with human recombinant IFN-γ

colon cancer CT26 [2] = experiment: In vivo pharmacodynamics, anti-colon cancer CT26 activity (intraperitoneal injection, once daily); settings: CT26 in BALB/c mice; for activity at the end of the experiment compared with other groups: once daily dosing; for Inhibition rate (%) of tumor weight / Tumor weight: 50 mg/kg daily intraperitoneal injection, two weeks
Description: Pharmacodynamics of Some Compounds In Vivo (Intraperitoneal Injection):
(§1) The anti-colon cancer CT26 activity of these compounds was tested in vivo. 1×10^6 CT26 cells were inoculated subcutaneously in the right axillary of BALB/c mice by cell suspension inoculation. When the growth of tumors were clearly observed, 42 moderately tumor size animals were selected and randomly divided into test group, solvent control group and positive drug group, with 6 animals in each group. […] The compound groups were intraperitoneally injected with 50 mg/kg of the compound every day, while the solvent control group was given the same dosage with the same volume of mixed solvent. The weight of the mice and the length and short diameter of the transplanted tumors were measured three times a week during the administration. The tumor volume (VT), relative volume (RVT) and tumor proliferation rate (T/C %) were calculated. After two weeks of administration, nude mice bearing tumors in each experimental group were executed by neck-lifting method. Solid tumour tissues were completely dissected. The weight of tumors in each experimental group was measured and the growth inhibition rate (%) was calculated.

colon cancer CT26 [3] = experiment: as above; settings: 300 mg/kg daily by oral, two weeks, CT26 in BALB/c mice
colon cancer CT26 [4] = experiment: In vivo pharmacodynamics, anti-colon cancer CT26 activity (oral administration, twice a day); parameters: species or system BALB/c mice; settings: two weeks
Description: Pharmacodynamic of Some Compounds In Vivo (Oral Administration):
as §1, with “observed, 56” for “observed, 42”, “with 8” for “with 6”, “The” for “The compound groups were intraperitoneally injected with 50 mg/kg of the compound every day, while the”, “same” for “same dosage with the same”, “mixed solvents by oral. The above groups were administered twice a day.” for “mixed solvent.”

[5] = Oral pharmacokinetic test of compound 55 in rats; assay type: in vivo; settings: male, Sprague-Dawley, plasma, rat, 30 mg/kg
Description: Pharmacokinetic Test and Results of Compound 55:
12 Male Sprague-Dawley rats were grouped random. The final concentration of compound 55 was 1.5 mg/ml. The drug was dissolved in a solvent system of 10% DMSO, 10% hydrogenated castor oil and […] (compounds were dissolved by DMSO, hydrogenated castor oil and saline in turn by vortex or ultrasound), and the drug solution was given orally (30 mg/kg). The rats were fasted overnight but had free access to water, feeding resumed 4 hours after administration. Blood samples (0.3-0.4 mL) were collected into heparinized tubes by Retinal vein plexus at 0, 0.17, 0.33, 0.67, 1, 2, 4, 7, 10 and 24 hours after administration orally. Tubes were anticoagulated with heparin sodium (5% heparin sodium solution filled EP tube, poured out, dried). 100 uL plasma was obtained by centrifugation (10000 rpm, 3 min) and stored at −20° C. before analysis.

colon cancer CT26 [6] = experiment: In vivo pharmacodynamics, anti-colon cancer CT26 activity (oral administration, twice a day); parameters: species or system BALB/c mice; settings: 50 mg/kg intraperitoneal injection (IP), two weeks
[7] = literature value, species not stated; cited from earlier work
[8] = 100 nmol compound, IFN-γ stimulated Hela cells, 48 hours
[9] = 10 μmol compound, IFN-γ stimulated Hela cells, 48 hours

T1 sequence (P14902 whole entry): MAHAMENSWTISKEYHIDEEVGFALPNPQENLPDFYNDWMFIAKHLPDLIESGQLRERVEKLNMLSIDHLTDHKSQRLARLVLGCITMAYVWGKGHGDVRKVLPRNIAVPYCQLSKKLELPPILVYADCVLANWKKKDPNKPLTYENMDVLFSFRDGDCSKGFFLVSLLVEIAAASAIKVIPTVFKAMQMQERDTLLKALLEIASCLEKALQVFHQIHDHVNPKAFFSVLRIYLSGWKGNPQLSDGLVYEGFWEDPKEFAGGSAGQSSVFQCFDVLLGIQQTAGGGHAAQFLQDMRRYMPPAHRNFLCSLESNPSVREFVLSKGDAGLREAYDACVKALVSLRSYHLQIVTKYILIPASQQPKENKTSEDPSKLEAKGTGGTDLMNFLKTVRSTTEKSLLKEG

CCCCN(CCCC)c1ccc(/C(C)=C/C(=O)OCC)cc1NC(=O)Nc1ccccc1Cl [Compound 1021]
inhibition at 0.1 µM [1, 8]: 42.1% | inhibition at 10 µM [1, 9]: 100%

C/C(=C/C(=O)O)c1ccc(N(CC(C)C)CC(C)C)c(NC(=O)Nc2ccc(C)cc2F)c1 [Compound 56]
activity compared with positive control drugs INCB024360 and IN-4 [1]: can reach or exceed those of the positive control drugs INCB024360 and IN-4 | IC50 [1]: 0.13 nmol/L

CCCCN(CCCC)c1ccc(/C(C)=C/C(=O)OCC)cc1NC(=O)Nc1ccc(Cl)cc1 [Compound 1023]
inhibition at 0.1 µM [1, 8]: 35.1% | inhibition at 10 µM [1, 9]: 100%

CCCCN(CCCC)c1ccc(/C(C)=C/C(=O)OCC)cc1NC(=O)Nc1ccc(Cl)c(C(F)(F)F)c1 [Compound 1024]
inhibition at 0.1 µM [1, 8]: 29.5% | inhibition at 10 µM [1, 9]: 58.2%

CCCCN(CCCC)c1ccc(/C(C)=C/C(=O)O)cc1NC(=O)Cc1ccccc1F [Compound 779]
inhibition at 0.1 µM [1, 8]: 77.1% | inhibition at 10 µM [1, 9]: 100%

Cn1cc(C[C@@H](N)C(=O)O)c2ccccc21 [Compound 1-MT, 1-methyl-D-tryptophan]
activity at the end of the experiment compared with other groups (colon cancer CT26 [2]): better than that of INCB024360 | Inhibition rate (%) of tumor weight (colon cancer CT26 [3]): 25.5% | Tumor weight (colon cancer CT26 [3]): 2509.17 ± 352.16 mg

CCCCN(CCCC)c1ccc(/C(C)=C\C(=O)O)cc1NC(=O)Nc1ccc(C)cc1F [Compound 14]
inhibition at 0.1 µM [1, 8]: 100% | inhibition at 10 µM [1, 9]: 100% | activity compared with positive control drugs INCB024360 and IN-4 [1]: can reach or exceed those of the positive control drugs INCB024360 and IN-4 | IC50 [1]: 0.18 nmol/L | Inhibition rate (%) of tumor weight (colon cancer CT26 [2]): 19.02% | Tumor weight (colon cancer CT26 [2]): 2727.33 ± 404.42 mg | Inhibition rate (%) of tumor weight (colon cancer CT26 [4]; 50 mg/kg oral): 37.39% | Tumor weight (colon cancer CT26 [4]; 50 mg/kg oral): 793.38 ± 246.34 mg

CCCCN(CCCC)c1ccc(/C(C)=C/C(=O)O)cc1NC(=O)Nc1ccc(C)cc1F [Compound 530]
IC50 [1]: 8.26 nmol/L

C/C(=C/C(=O)O)c1ccc(N(CC(C)C)CC(C)C)c(NC(=O)Nc2ccc(F)cc2F)c1 [Compound 55, (Z)-3-(3-(3-(2,4-difluorophenyl)ureido)-4-(diisobutylamino)phenyl)but-2-enoic acid]
activity compared with positive control drugs INCB024360 and IN-4 [1]: can reach or exceed those of the positive control drugs INCB024360 and IN-4 | IC50 [1]: 0.09 nmol/L | AUC [5]: 43700 ng·h/mL | Cmax [5]: 16800 ng/mL | half-life [5]: 5 h | Inhibition rate (%) of tumor weight (colon cancer CT26 [2]): 37.02% | Tumor weight (colon cancer CT26 [2]): 2121.17 ± 343.15 mg | activity at the end of the experiment compared with other groups (colon cancer CT26 [2]): equivalent to that of 1-MT | Inhibition rate (%) of tumor weight (colon cancer CT26 [4]; 20 mg/kg oral (low dose)): 12.42% | Tumor weight (colon cancer CT26 [4]; 20 mg/kg oral (low dose)): 1109.75 ± 191.47 mg | Inhibition rate (%) of tumor weight (colon cancer CT26 [4]; 50 mg/kg oral): 27.06% | Tumor weight (colon cancer CT26 [4]; 50 mg/kg oral): 924.25 ± 150.35 mg | Inhibition rate (%) of tumor weight (colon cancer CT26 [4]; 100 mg/kg oral (high dose)): 33.16% | Tumor weight (colon cancer CT26 [4]; 100 mg/kg oral (high dose)): 847.00 ± 305.01 mg | Inhibition rate (%) of tumor weight (colon cancer CT26 [6]): 34.97% | Tumor weight (colon cancer CT26 [6]): 824.00 ± 161.64 mg

CCCCN(CCCC)c1ccc(/C(C)=C/C(=O)OCC)cc1NC(=O)Nc1cccc(C)c1 [Compound 1026]
inhibition at 0.1 µM [1, 8]: 21% | inhibition at 10 µM [1, 9]: 54.3%

CCCCN(CCCC)c1ccc(/C(C)=C/C(=O)OCC)cc1NC(=O)Nc1ccc(C)cc1 [Compound 518, ethyl (E)-3-(4-(dibutylamino)-3-(3-(p-tolyl)ureido)phenyl)but-2-enoate]
inhibition at 0.1 µM ([1]; HeLa, 48 h): 76.8% | inhibition at 10 µM ([1]; HeLa, 48 h): 100%

C/C(=C/C(=O)O)c1ccc(N(CC(C)C)CC(C)C)c(NC(=O)Nc2ccc(C)cc2)c1 [Compound 51]
activity compared with positive control drugs INCB024360 and IN-4 [1]: can reach or exceed those of the positive control drugs INCB024360 and IN-4 | IC50 [1]: 3.69 nmol/L

CCCCN(CCCC)c1ccc(/C(C)=C\C(=O)O)cc1NC(=O)Nc1ccc(F)cc1F [Compound 13]
inhibition at 0.1 µM [1, 8]: 100% | inhibition at 10 µM [1, 9]: 100% | activity compared with positive control drugs INCB024360 and IN-4 [1]: can reach or exceed those of the positive control drugs INCB024360 and IN-4 | IC50 [1]: 3.69 nmol/L

NS(=O)(=O)NCCNc1nonc1C(=NO)Nc1ccc(F)c(Br)c1 [INCB024360, reference compound]
Inhibition rate (%) of tumor weight (colon cancer CT26 [2]): 10.23% | Tumor weight (colon cancer CT26 [2]): 3026.17 ± 409.75 mg | Inhibition rate (%) of tumor weight (colon cancer CT26 [4]; 50 mg/kg oral): 33.66% | Tumor weight (colon cancer CT26 [4]; 50 mg/kg oral): 840.63 ± 144.34 mg | T1/2 reported in the literature [7]: 2.3 h

CCCCN(CCCC)c1ccc(/C(C)=C/C(=O)OCC)cc1NC(=S)Nc1ccccc1 [Compound 1025]
inhibition at 0.1 µM [1, 8]: 24.6% | inhibition at 10 µM [1, 9]: 68.8%

CCCCN(CCCC)c1ccc(/C(C)=C/C(=O)O)cc1NC(=S)Nc1ccccc1 [Compound 1031]
inhibition at 0.1 µM [1, 8]: 29.6% | inhibition at 10 µM [1, 9]: 72.7%

CCCCN(CCCC)c1ccc(/C(C)=C/C(=O)O)cc1NC(=O)Nc1ccc(Cl)c(C(F)(F)F)c1 [Compound 1030]
inhibition at 0.1 µM [1, 8]: 23.8% | inhibition at 10 µM [1, 9]: 100%

CCOC(=O)/C=C(\C)c1ccc(N(CC(C)C)CC(C)C)c(NC(=O)Nc2ccc(F)cc2F)c1 [Compound 564, ethyl (E)-3-(3-(3-(2,4-difluorophenyl)ureido)-4-(diisobutylamino)phenyl) but-2-enoate]
inhibition at 0.1 µM [1, 8]: 72.2% | inhibition at 10 µM [1, 9]: 100%

CCCCN(CCCC)c1ccc(/C(C)=C/C(=O)OCC)cc1NC(=O)Nc1cccc(Cl)c1 [Compound 1022]
inhibition at 0.1 µM [1, 8]: 21.2% | inhibition at 10 µM [1, 9]: 53.7%

CCCCN(CCCC)c1ccc(/C(C)=C/C(=O)O)cc1NC(=O)Nc1cccc(Cl)c1 [Compound 1028]
inhibition at 0.1 µM [1, 8]: 41.5% | inhibition at 10 µM [1, 9]: 100%

CCCCN(CCCC)c1ccc(/C(C)=C/C(=O)O)cc1NC(=O)Nc1ccccc1Cl [Compound 1027]
inhibition at 0.1 µM [1, 8]: 71.1% | inhibition at 10 µM [1, 9]: 100%

CCCCN(CCCC)c1ccc(/C(C)=C/C(=O)OCC)cc1NC(=O)Cc1ccccc1F [Compound 772]
inhibition at 0.1 µM [1, 8]: 74.2% | inhibition at 10 µM [1, 9]: 100%
